A short description of series [1]: Cytotoxicity against rat PC12 cells assessed as reduction in cell viability at 0.01 to 100 uM after 24 hrs by MTT assay. It is filed as cell-based. The following applies: pc-12, 24 h.
Another series concerns PC-12. In words: Neuroprotective activity against amyloid beta (1 to 42)-induced cell death in rat PC12 cells assessed as cell viability at 100 uM preincubated for 24 hrs followed by amyloid beta (1 to 42) addition measured after 1 day by MTT assay relative to control. It is filed as functional. The note with it: read-out: Activity. In general terms: Tetrazolium assays rely on reduction of a dye to a coloured formazan, in cell work by metabolically active cells.

A further series has as its target Acetylcholinesterase (Electrophorus electricus, UniProt O42275).
A further series concerns the target Cholinesterase (Equus caballus, UniProt P81908).
Series [2] deals with Amyloid-beta precursor protein (Homo sapiens) (UniProt P05067). In words: Inhibition of amyloid beta (1-42) (unknown origin) self-induced aggregation after 2 days by thioflavin T fluorometric assay.
Sequence of Amyloid-beta precursor protein (Homo sapiens) (P05067 whole entry): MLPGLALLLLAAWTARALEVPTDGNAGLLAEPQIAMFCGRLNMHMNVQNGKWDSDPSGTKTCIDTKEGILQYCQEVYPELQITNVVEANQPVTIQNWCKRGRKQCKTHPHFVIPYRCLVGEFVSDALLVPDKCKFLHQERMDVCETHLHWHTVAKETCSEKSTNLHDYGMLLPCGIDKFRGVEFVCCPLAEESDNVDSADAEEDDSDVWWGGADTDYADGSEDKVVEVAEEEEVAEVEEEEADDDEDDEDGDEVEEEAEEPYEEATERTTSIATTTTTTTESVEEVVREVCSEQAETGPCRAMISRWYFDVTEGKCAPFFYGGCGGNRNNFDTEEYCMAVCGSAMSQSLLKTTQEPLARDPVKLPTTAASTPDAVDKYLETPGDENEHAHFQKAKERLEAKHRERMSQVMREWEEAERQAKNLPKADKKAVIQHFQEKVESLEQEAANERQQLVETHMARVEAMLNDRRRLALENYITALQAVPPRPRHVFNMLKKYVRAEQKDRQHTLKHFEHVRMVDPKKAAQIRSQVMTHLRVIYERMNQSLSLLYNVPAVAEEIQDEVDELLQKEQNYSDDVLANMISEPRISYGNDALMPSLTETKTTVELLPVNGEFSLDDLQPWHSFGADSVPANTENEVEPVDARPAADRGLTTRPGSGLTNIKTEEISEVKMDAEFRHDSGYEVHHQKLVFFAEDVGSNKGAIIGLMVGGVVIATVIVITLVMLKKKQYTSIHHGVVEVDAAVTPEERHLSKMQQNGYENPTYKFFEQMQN

Sequence of Cholinesterase (P81908 whole entry): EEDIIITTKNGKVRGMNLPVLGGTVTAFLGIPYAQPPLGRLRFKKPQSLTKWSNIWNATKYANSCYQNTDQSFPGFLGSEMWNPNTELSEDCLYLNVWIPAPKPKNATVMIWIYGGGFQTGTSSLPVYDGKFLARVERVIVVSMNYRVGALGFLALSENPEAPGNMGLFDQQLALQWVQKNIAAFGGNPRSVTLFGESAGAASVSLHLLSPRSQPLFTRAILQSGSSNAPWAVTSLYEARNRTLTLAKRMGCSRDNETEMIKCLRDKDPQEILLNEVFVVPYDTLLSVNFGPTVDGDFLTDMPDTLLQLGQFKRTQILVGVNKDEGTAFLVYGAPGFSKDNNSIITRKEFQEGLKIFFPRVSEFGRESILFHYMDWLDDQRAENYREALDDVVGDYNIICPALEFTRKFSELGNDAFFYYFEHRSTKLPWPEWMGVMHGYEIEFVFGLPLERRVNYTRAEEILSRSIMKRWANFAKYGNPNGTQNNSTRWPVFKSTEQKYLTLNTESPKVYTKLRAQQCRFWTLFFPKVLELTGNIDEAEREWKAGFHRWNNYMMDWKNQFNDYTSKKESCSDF
Sequence of Acetylcholinesterase (O42275 whole entry): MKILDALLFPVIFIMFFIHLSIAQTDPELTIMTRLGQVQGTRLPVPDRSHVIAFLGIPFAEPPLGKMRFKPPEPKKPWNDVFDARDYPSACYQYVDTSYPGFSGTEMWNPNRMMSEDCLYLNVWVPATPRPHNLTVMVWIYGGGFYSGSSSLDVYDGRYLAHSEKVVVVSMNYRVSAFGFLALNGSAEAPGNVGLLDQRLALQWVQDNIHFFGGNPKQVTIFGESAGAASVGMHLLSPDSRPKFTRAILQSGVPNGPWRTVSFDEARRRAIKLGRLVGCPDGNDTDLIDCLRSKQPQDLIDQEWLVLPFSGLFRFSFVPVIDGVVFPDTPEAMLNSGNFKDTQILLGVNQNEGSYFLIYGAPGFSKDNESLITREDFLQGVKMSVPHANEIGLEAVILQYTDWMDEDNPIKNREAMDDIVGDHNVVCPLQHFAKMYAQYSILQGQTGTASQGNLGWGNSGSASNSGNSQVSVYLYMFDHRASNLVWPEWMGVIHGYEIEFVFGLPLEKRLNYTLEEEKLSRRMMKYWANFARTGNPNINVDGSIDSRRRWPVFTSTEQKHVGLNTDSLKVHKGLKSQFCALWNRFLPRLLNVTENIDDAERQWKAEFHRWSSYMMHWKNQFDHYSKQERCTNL
Description for Acetylcholinesterase: Inhibition of electric eel AChE using acetylthiocholine iodide as substrate preincubated for 5 mins followed by substrate addition measured for 10 mins by modified Ellman's method

In general, IC50 refers to the point on the concentration scale where inhibition reaches its midpoint. Low values mean inhibition by little substance, high ones a need for much substance. On to `COc1cc(/C=C2\CC(C)C/C(=C\c3cc(OC)c(OC)c(OC)c3Br)C2=O)c(Br)c(OC)c1OC` (centres undefined), for which the Activity result in series [1] is “Non-toxic”. The viability at 100 µM in the series on PC-12 is at most 92%. Further, the IC50 against Acetylcholinesterase was 1.5 µM; on Cholinesterase, 19.5 µM.
For `COc1ccc(/C=C2\COC/C(=C\c3ccc(OC)c(OC)c3Cl)C2=O)c(Cl)c1OC`, the Activity entry in series [1] is reported as “Non-toxic”. Also, the viability at 100 µM in the series on PC-12 was found to be 58%. In addition, the IC50 against Acetylcholinesterase is 7.2 µM; against Cholinesterase it was above 100 µM.
With `COc1cccc(/C=C2\CC(C(C)C)C/C(=C\c3cccc(OC)c3Cl)C2=O)c1Cl` (centres undefined), in series [1], the Activity result is on record as “Non-toxic”. In addition, the viability at 100 µM with PC-12 was 58%. In addition, the IC50 was 1.3 µM on Acetylcholinesterase and above 100 µM against Cholinesterase.
For `COc1cccc(/C=C2\COC/C(=C\c3cccc(OC)c3Cl)C2=O)c1Cl`, in that order: “Non-toxic”, 58%, 9.5 µM and above 100 µM.
For `COc1ccc(/C=C2\CN(Cc3ccccc3)C/C(=C\c3ccc(OC)c(OC)c3Cl)C2=O)c(Cl)c1OC`, the Activity result in series [1] was “Non-toxic”. The viability at 100 µM in the series on PC-12 turned out to be 58%. Moreover, the IC50 on Acetylcholinesterase and on Cholinesterase was above 100 µM throughout.
With `COc1ccc(/C=C2\CNC/C(=C\c3ccc(OC)c(OC)c3Cl)C2=O)c(Cl)c1OC`, in series [1], the Activity result is recorded as “Non-toxic”. Further, in the series on PC-12, the viability at 100 µM turned out to be 58%. Also, the IC50 at Acetylcholinesterase was 3.7 µM; on Cholinesterase it was 16.7 µM.
For `COc1cc(/C=C2\COC/C(=C\c3cc(OC)c(OC)c(OC)c3Br)C2=O)c(Br)c(OC)c1OC`, in that order: “Non-toxic”, at most 92%, 1.5 µM and above 100 µM.
For `COc1ccc(/C=C2\CC(C)C/C(=C\c3ccc(OC)c(OC)c3Cl)C2=O)c(Cl)c1OC` (centres undefined), in that order: “Non-toxic”, 58%, 2.1 µM and 11.2 µM.
In the case of `COc1ccc(/C=C2\CCC/C(=C\c3ccc(OC)c(OC)c3Cl)C2=O)c(Cl)c1OC`, the Activity result in series [1] is listed as “Non-toxic”. In addition, the viability at 100 µM in the series with PC-12 was determined as 58%. Besides, the IC50 was 17.5 µM on Acetylcholinesterase and above 100 µM against Cholinesterase.
For `COc1cc(/C=C2\CN(C)C/C(=C\c3cc(OC)c(OC)c(OC)c3Br)C2=O)c(Br)c(OC)c1OC`, in series [1], the Activity entry is on record as “Non-toxic”. Further, the viability at 100 µM in the series with PC-12 is at most 92%. For the same compound, in series [2], the inhibition entry was “Dose-dependent effect”. The IC50 at Acetylcholinesterase turned out to be 0.037 µM; against Cholinesterase it was 10.5 µM.
As for `COc1cccc(/C=C2\CNC/C(=C\c3cccc(OC)c3Cl)C2=O)c1Cl`, the Activity result in series [1] is “Non-toxic”. In addition, the viability at 100 µM with PC-12 stood at 58%. Besides, the IC50 at Acetylcholinesterase is 5.2 µM; against Cholinesterase, above 100 µM.
Turning to `COc1cc(/C=C2\CCC/C(=C\c3cc(OC)c(OC)c(OC)c3Br)C2=O)c(Br)c(OC)c1OC`, the Activity result in series [1] was “Non-toxic”. For the same compound, in the series on PC-12, the viability at 100 µM turned out to be 58%. Moreover, the inhibition result in series [2] was “Dose-dependent effect”. The IC50 was 12.6 µM at Acetylcholinesterase and above 100 µM on Cholinesterase.
Consider `COc1cccc(/C=C2\CCC/C(=C\c3cccc(OC)c3Cl)C2=O)c1Cl`, for which the Activity result in series [1] is given as “Non-toxic”. For the same compound, the viability at 100 µM in the series with PC-12 amounted to 58%. The results for the IC50 against Acetylcholinesterase and at Cholinesterase were 22.4 µM and above 100 µM, respectively.
With `COc1ccc(/C=C2\CN(C)C/C(=C\c3ccc(OC)c(OC)c3Cl)C2=O)c(Cl)c1OC`, the Activity result in series [1] is given as “Non-toxic”. The viability at 100 µM with PC-12 was at most 92%. The inhibition entry in series [2] was “Dose-dependent effect”. The figures for the IC50 at Acetylcholinesterase and against Cholinesterase were 0.63 µM and 2.9 µM, respectively.
Taken in the same sequence, the figures for `COc1ccc(/C=C2\CC(C(C)C)C/C(=C\c3ccc(OC)c(OC)c3Cl)C2=O)c(Cl)c1OC` (centres undefined) were “Non-toxic”, 58%, “Dose-dependent effect”, 0.92 µM and above 100 µM.
Regarding `COc1cc(/C=C2\CC(C(C)C)C/C(=C\c3cc(OC)c(OC)c(OC)c3Br)C2=O)c(Br)c(OC)c1OC` (centres undefined), in series [1], the Activity entry is reported as “Non-toxic”. For the same compound, the viability at 100 µM in the series on PC-12 was found to be 58%. For the same compound, in series [2], the inhibition result was “Dose-dependent effect”. The results for the IC50 against Acetylcholinesterase and against Cholinesterase were 0.51 µM and above 100 µM, respectively.
As to `COc1cccc(/C=C2\CN(Cc3ccccc3)C/C(=C\c3cccc(OC)c3Cl)C2=O)c1Cl`, in series [1], the Activity entry is “Non-toxic”. Moreover, the viability at 100 µM in the series on PC-12 amounted to 58%. For the same compound, the IC50 against Acetylcholinesterase and on Cholinesterase was above 100 µM throughout.
`COc1cccc(/C=C2\CC(C)C/C(=C\c3cccc(OC)c3Cl)C2=O)c1Cl` (centres undefined): the Activity entry in series [1] was “Non-toxic”. Also, the viability at 100 µM with PC-12 was 58%. The values for the IC50 against Acetylcholinesterase and on Cholinesterase were 5.6 µM and 49.7 µM, respectively.
As for `COc1cc(/C=C2\CNC/C(=C\c3cc(OC)c(OC)c(OC)c3Br)C2=O)c(Br)c(OC)c1OC`, the Activity result in series [1] is given as “Non-toxic”. For the same compound, the viability at 100 µM in the series with PC-12 was at most 92%. The IC50 came out at 1.9 µM against Acetylcholinesterase and 68.8 µM at Cholinesterase.
On to `COc1cc(/C=C2\CN(Cc3ccccc3)C/C(=C\c3cc(OC)c(OC)c(OC)c3Br)C2=O)c(Br)c(OC)c1OC`, for which, in series [1], the Activity result is listed as “Non-toxic”. The viability at 100 µM with PC-12 is 58%. Further, the IC50 on Acetylcholinesterase and against Cholinesterase was above 100 µM throughout.
Take `COc1cccc(/C=C2\CN(C)C/C(=C\c3cccc(OC)c3Cl)C2=O)c1Cl`: the Activity entry in series [1] is reported as “Non-toxic”. Also, the viability at 100 µM with PC-12 was at most 92%. Also, the IC50 on Acetylcholinesterase is 1.2 µM; at Cholinesterase, above 100 µM.

The values above are taken from ChEMBL document CHEMBL3785047, “Biological evaluation of synthetic α,β-unsaturated carbonyl based cyclohexanone derivatives as neuroprotective novel inhibitors of acetylcholinesterase, butyrylcholinesterase and amyloid-β aggregation” (Bioorg Med Chem, 2016).
